{"source": "patent US7470429B2", "about": "“Methods and compositions for increasing the target-specific toxicity of a chemotherapy drug” (priority 1998, dated 2008)", "key": {"[1]": {"target": "T1, human beta-D-glucuronidase (Homo sapiens, UniProt P08236)", "T1 sequence (P08236 23-651)": "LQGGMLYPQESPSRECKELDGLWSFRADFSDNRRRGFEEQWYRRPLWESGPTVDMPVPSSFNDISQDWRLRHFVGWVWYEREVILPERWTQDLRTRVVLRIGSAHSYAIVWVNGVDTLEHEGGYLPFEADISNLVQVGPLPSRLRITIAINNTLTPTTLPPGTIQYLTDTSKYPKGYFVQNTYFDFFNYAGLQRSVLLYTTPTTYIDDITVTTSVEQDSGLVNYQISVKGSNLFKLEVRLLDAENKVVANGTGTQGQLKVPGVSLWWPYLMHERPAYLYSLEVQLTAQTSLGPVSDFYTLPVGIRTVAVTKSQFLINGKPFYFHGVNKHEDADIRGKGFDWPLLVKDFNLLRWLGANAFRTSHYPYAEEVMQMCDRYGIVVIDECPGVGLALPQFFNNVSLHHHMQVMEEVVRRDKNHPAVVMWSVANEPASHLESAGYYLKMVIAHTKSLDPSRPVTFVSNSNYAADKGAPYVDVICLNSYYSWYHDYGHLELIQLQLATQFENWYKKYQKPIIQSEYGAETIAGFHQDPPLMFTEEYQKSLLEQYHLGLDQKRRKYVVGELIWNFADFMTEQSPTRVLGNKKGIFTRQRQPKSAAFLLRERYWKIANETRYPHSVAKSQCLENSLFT", "conditions": "cited from earlier work"}, "lymphoma": {"tested_on": "lymphoma", "assay": "Therapy of lymphoma in a human patient after pretargeting of enzyme conjugates", "format": "in vivo", "conditions": "10 mg i.v. after pretargeted Fab′-glucuronidase and esterase conjugates; compared to 10 mg epirubicin prior to targeting", "method": "A human patient suffering from lymphoma is infused intravenously with a sterile, pyrogen-free PBS solution containing 5 mg each of the 1-13 1-labeled anti-lymphoma Fab′-glucuronidase and esterase conjugates prepared according to Example 1 hereof.\nThe patient is then infused intravenously with a sterile, pyrogen-free PBS solution containing 10 mg of epirubicin methyl ester."}, "[2]": {"tested_on": "uridine diphosphate glucuronosyl transferase (UDP-GT)", "conditions": "pretreatment of rats; cited from earlier work"}, "[3]": {"conditions": "pretreatment of rats; cited from earlier work"}, "colorectal cancer": {"tested_on": "colorectal cancer", "assay": "Tumor therapy of colorectal cancer patient with bsMAb, DTPA-enzyme conjugates and CPT-11", "format": "in vivo, human", "conditions": "then standard dose CPT-11", "method": "A patient with colorectal cancer is given an injection of the bsMAb comprised of an […]-14 cross-linked with an anti-DTPA Fab' fragment, prepared according to Example 3. After 48 h to allow for maximum accretion in tumors, an amount of galactose-[…], prepared according to Example 4, sufficient to clear nearly all non-target-bound MN-14-IgG ×734-Fab' from the circulation is administered. This amount is between 5 and 15 times the amount of primary bsMAb remaining in circulation at the time-point specified. Three hours after administration of the galactose-[…], a tumor-saturating amount of a mixture of the DTPA-CE and […] conjugates is given, and allowed to clear circulation and normal tissues. […] A patient with colorectal cancer is given an injection of the bsMAb as in Example 6. After 48 h to allow for maximum accretion in tumors, an excess amount of same mixture of the DTPA-CE and DTPA-glucuronidase conjugates as in Example 6 is given. Three hours later an amount of galactose-[…] sufficient to clear nearly all non-target-bound […]-IgG ×734-Fab'-DTPA-enzymes from the circulation is administered. This amount is between 5 and 15 times the amount of primary bsMAb complexes remaining in circulation at the time-point specified."}}, "data": [{"compound": "COc1cccc2c1C(=O)c1c(O)c3c(c(O)c1C2=O)C[C@@](O)(C(=O)CO)C[C@@H]3O[C@H]1C[C@H](N)[C@@H](O)[C@H](C)O1", "note": "[epirubicin]", "values": [{"measurement": "substrate for human beta-D-glucuronidase", "setting": "[1]", "value": "substrate for human beta-D-glucuronidase"}]}, {"compound": "epirubicin methyl ester", "values": [{"measurement": "reduction in the lymphoma by radioimmunodetection", "setting": "lymphoma", "value": "significant reduction in the lymphoma"}]}, {"compound": "CCCC(CCC)C(=O)O", "note": "[valproic acid]", "values": [{"measurement": "formation of SN-38G", "setting": "[2]", "value": "inhibited the formation of SN-38G"}, {"measurement": "AUC for SN-38 from subsequently-administered CPT-11", "setting": "[3]", "value": 270, "unit": "%"}]}, {"compound": "CCc1c2c(nc3ccc(OC(=O)N4CCC(N5CCCCC5)CC4)cc13)-c1cc3c(c(=O)n1C2)COC(=O)[C@]3(O)CC", "note": "[CPT-11, irinotecan]", "values": [{"measurement": "effect on tumors", "setting": "colorectal cancer; Example 6: bsMAb, galactose-W12 clearing, then DTPA-enzyme conjugates", "value": "destroying the tumors"}, {"measurement": "effect on tumors", "setting": "colorectal cancer; Example 7: bsMAb, DTPA-enzyme conjugates, then galactose-W12 clearing", "value": "destroying said tumors"}]}]}
